The values below come from patent US9682141B2, “Combination of kinase inhibitors and uses thereof” (INTELLIKINE LLC, priority 2011, dated 2017).

Where two headings read alike, the source gives them in different places.

Type in all cases: biochemical
Assay [1] addresses PI3K δ (Homo sapiens (Human), UniProt O00329). In words: PI 3-Kinase (human) HTRF assay, p110δ/p85α. (Time-resolved FRET reads energy transfer from a long-lived donor to a nearby acceptor.)
In assay [2] the target is PI3K β (Homo sapiens (Human), UniProt P42338). In words: PI 3-Kinase (human) HTRF assay, p110β/p85α.
The target of assay [3] is PI3K α (Homo sapiens (Human), UniProt P42336). Briefly: PI 3-Kinase (human) HTRF assay, p110α/p85α.
Assay [4] deals with PI3K γ (Homo sapiens (Human), UniProt P48736). In words: PI 3-Kinase (human) HTRF assay, p110γ.
Assay [5] can be described thus: PI 3-Kinase (human) HTRF assay, p110δ/p85α. Conditions: read-out: PI3K γ IC50.

PI3K β, sequence (P42338 whole entry): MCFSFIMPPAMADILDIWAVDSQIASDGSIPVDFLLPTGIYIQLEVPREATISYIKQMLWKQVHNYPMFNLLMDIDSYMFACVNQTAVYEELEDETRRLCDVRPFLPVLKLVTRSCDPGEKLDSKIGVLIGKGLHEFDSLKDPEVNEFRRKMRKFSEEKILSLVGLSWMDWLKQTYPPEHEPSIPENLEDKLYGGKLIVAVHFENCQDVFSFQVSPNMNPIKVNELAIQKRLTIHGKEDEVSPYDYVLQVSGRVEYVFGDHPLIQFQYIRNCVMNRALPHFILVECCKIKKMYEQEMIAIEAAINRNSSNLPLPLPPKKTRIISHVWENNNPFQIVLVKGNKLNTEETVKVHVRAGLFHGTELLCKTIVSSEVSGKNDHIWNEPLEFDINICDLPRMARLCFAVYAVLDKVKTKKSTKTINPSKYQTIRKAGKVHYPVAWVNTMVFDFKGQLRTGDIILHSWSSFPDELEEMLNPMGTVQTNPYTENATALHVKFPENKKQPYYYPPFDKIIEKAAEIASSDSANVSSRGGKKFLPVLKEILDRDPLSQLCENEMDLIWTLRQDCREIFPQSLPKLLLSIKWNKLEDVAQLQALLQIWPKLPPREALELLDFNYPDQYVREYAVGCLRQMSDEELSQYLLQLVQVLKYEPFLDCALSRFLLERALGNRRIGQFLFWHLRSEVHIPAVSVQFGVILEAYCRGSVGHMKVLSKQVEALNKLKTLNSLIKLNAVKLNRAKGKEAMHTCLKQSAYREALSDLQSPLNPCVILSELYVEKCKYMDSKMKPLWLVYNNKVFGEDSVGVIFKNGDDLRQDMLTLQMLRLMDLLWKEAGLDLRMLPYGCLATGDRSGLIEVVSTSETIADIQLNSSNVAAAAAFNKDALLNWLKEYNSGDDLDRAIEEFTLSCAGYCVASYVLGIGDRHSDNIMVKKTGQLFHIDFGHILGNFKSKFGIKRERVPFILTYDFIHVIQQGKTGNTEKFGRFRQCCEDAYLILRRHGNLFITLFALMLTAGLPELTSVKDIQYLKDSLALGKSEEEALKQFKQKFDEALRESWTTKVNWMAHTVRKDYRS
PI3K β, sequence (P27986 whole entry partner): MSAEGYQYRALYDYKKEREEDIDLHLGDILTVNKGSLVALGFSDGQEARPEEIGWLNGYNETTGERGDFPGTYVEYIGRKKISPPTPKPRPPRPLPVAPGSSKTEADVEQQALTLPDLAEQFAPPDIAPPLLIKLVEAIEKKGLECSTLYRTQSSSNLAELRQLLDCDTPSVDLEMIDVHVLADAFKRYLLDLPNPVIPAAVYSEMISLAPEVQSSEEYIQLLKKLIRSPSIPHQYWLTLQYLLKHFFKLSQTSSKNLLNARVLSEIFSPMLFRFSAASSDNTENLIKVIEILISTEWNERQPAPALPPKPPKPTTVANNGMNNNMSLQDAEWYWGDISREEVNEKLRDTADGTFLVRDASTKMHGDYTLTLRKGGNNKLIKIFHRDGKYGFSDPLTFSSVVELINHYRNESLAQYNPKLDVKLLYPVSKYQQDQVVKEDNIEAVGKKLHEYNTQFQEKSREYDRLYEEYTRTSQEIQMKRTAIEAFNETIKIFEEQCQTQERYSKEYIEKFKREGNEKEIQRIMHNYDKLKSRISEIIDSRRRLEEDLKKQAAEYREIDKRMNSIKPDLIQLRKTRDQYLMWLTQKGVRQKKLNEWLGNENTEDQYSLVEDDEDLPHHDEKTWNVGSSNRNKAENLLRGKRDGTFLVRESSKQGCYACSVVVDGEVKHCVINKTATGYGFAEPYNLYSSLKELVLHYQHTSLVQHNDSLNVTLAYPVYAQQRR
PI3K α, sequence (P42336 whole entry): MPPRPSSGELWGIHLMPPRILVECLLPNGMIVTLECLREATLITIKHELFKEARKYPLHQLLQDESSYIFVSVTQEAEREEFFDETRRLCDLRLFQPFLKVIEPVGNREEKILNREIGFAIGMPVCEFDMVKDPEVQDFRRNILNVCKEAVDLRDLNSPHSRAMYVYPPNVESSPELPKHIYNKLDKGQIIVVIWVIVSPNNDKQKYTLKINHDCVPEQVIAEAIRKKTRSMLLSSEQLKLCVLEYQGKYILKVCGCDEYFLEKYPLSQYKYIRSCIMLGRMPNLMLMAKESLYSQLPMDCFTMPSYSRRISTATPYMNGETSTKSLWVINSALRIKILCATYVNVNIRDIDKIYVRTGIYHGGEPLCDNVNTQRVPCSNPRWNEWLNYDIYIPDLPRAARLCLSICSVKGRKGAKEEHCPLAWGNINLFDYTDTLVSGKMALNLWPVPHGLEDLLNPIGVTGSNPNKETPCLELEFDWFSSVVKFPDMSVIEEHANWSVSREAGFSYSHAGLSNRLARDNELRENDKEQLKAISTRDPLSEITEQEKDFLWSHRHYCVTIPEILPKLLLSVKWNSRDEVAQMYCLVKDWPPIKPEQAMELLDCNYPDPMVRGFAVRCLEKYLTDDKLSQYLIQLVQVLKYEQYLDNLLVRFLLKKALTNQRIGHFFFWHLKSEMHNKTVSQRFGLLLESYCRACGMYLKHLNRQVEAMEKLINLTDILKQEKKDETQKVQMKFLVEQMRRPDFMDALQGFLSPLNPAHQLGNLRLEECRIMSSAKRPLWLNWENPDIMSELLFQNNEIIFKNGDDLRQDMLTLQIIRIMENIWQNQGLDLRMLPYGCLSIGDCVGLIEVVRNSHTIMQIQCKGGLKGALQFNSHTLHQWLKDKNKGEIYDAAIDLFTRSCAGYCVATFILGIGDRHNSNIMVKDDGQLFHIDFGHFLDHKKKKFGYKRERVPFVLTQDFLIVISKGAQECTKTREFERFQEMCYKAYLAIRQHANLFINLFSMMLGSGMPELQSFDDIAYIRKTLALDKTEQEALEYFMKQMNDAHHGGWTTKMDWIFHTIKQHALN
PI3K α, sequence (P27986 whole entry partner): as the sequence (P27986 whole entry partner) above
PI3K δ, sequence (O00329 whole entry): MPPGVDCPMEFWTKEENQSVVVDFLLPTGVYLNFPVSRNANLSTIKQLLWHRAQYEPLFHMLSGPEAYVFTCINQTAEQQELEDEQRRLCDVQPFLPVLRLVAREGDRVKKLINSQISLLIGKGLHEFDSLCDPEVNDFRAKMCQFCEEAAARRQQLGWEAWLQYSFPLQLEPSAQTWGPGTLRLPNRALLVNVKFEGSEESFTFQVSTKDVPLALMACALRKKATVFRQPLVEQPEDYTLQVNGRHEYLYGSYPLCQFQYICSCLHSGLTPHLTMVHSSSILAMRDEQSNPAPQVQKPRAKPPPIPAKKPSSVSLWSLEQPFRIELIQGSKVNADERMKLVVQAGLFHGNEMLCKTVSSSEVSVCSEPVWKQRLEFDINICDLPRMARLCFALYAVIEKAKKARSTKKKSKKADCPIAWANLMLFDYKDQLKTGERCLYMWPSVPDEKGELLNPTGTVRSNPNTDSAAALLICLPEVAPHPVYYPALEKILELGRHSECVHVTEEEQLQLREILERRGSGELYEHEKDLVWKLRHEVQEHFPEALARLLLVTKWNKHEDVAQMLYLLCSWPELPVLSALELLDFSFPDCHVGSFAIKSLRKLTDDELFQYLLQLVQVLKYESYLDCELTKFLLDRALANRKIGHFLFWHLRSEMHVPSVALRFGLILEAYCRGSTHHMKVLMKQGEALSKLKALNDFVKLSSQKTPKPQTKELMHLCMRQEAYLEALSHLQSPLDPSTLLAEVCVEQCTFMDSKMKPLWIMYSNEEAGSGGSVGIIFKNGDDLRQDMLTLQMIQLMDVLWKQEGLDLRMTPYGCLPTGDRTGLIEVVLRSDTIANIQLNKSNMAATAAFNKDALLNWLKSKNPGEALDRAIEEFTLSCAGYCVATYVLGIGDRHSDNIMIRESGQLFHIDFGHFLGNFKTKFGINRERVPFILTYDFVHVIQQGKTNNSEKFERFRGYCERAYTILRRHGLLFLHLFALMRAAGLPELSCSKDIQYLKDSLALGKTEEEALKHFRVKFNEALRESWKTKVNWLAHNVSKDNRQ
PI3K δ, sequence (P27986 whole entry partner): as the sequence (P27986 whole entry partner) above

What is called IC50 is the concentration needed to halve the response being measured. In the case of `Nc1nc2cc(-c3ccc4ncc(C(=O)N5CCC(O)CC5)n4c3)ccc2o1`, the IC50 in assay [1] was greater than 10000 nM; in assay [2] it was greater than 10000 nM; in assay [3], less than 1000 nM; in assay [4] (read-out: PI3K γ IC50), less than 10000 nM.
For the molecule `CN1CCN(C(=O)c2cnc3cnc(-c4ccc5oc(N)nc5c4)cn23)CC1`, the IC50 is greater than 10000 nM in assay [1], greater than 10000 nM in assay [2], less than 10000 nM in assay [3] and greater than 10000 nM in assay [4] (read-out: PI3K γ IC50).
On to `Nc1nc2cc(-c3ccc4ncc(N5CCC(O)CC5)nc4n3)ccc2o1`, for which the IC50 was greater than 10000 nM in assay [1], less than 10000 nM in assay [2], less than 100 nM in assay [3] and less than 100 nM in assay [4] (read-out: PI3K γ IC50).
In the case of `CC1CN(c2cnc3ccc(-c4ccc5oc(N)nc5c4)cc3n2)CC(C)N1` (stereo not drawn), the IC50 in assay [1], in assay [2], in assay [3] and in assay [4] (read-out: PI3K γ IC50) was less than 1000 nM each time.
For the molecule `Nc1nc2cc(-c3ccc4ncc(N5CCN(CC6CC6)CC5)nc4c3)ccc2o1`, the IC50 in assay [1] was less than 1000 nM; in assay [2], less than 100 nM; in assay [3], less than 100 nM; in assay [4] (read-out: PI3K γ IC50), less than 1000 nM.
Take `Cc1ncccc1-c1cnc2ccc(-c3ccc4oc(N)nc4c3)cc2n1`: the IC50 in assay [1] is greater than 10000 nM; in assay [2], greater than 10000 nM; in assay [3], less than 1000 nM; in assay [4] (read-out: PI3K γ IC50) it was greater than 10000 nM.
As for `Nc1nc2cc(-c3ccc4ncc(C(=O)NC5CCOCC5)n4c3)ccc2o1`, the IC50 was less than 100 nM in assay [1], less than 10000 nM in assay [2], less than 100 nM in assay [3] and less than 100 nM in assay [4] (read-out: PI3K γ IC50).
As to `CN1CCCN(C(=O)c2cnc3ccc(-c4ccc5oc(N)nc5c4)cn23)CC1`, the IC50 in assay [1] was greater than 10000 nM; in assay [2] it was less than 10000 nM; in assay [3] it was less than 1000 nM; in assay [4] (read-out: PI3K γ IC50) it was greater than 10000 nM.
Consider `Nc1nc2cc(-c3ccc4ncc(-c5cccnc5)n4c3)ccc2o1` [Compound 37], for which the IC50 in assay [1], in assay [3] and in assay [4] (read-out: PI3K γ IC50) was less than 100 nM each time.
Consider `CC1CN(C(=O)c2cnc3ccc(-c4ccc5oc(N)nc5c4)cn23)CC(C)N1` (stereo not drawn), for which the IC50 was greater than 10000 nM in assay [1], greater than 10000 nM in assay [2], less than 10000 nM in assay [3] and greater than 10000 nM in assay [4] (read-out: PI3K γ IC50).
Take `CC(=O)NC1CCN(C(=O)c2cnc3ccc(-c4ccc5oc(N)nc5c4)cn23)CC1`: the IC50 is less than 10000 nM in assay [1], less than 10000 nM in assay [2], less than 1000 nM in assay [3] and less than 10000 nM in assay [4] (read-out: PI3K γ IC50).
For the molecule `Nc1nc2cc(-c3cn4c(C(=O)N5CCOCC5)cnc4cn3)ccc2o1`, the IC50 in assay [1], in assay [2], in assay [3] and in assay [4] (read-out: PI3K γ IC50) was greater than 10000 nM each time.
Regarding `CN1CCN(c2nc3cc(-c4ccc5oc(N)nc5c4)ccc3c(=O)n2C)CC1`, the IC50 in assay [1] was greater than 10000 nM; in assay [2] it was greater than 10000 nM; in assay [3], less than 10000 nM; in assay [4] (read-out: PI3K γ IC50), greater than 10000 nM.
For `Nc1nc2cc(-c3ccc4ncc(-c5cccnc5)n4n3)ccc2o1`, the IC50 in assay [1], in assay [2], in assay [3] and in assay [4] (read-out: PI3K γ IC50) was less than 100 nM throughout.
For the molecule `CC(C)N1CCC(Nc2ncnc3ccc(-c4ccc5oc(N)nc5c4)cc23)CC1`, the IC50 in assay [1] is less than 1000 nM; in assay [2], less than 10000 nM; in assay [3], less than 100 nM; in assay [4] (read-out: PI3K γ IC50) it was less than 10000 nM.
Consider `Cc1ccc(-c2cnc3ccc(-c4ccc5oc(N)nc5c4)cc3n2)cn1`, for which the IC50 in assay [1] is greater than 10000 nM; in assay [2] it was greater than 10000 nM; in assay [3], less than 100 nM; in assay [4] (read-out: PI3K γ IC50), less than 100 nM.
For `Nc1nc2cc(-c3ccc4ncc(-c5ccccc5)nc4c3)ccc2o1`, the IC50 in assay [1] is greater than 10000 nM; in assay [2], greater than 10000 nM; in assay [3], less than 1000 nM; in assay [4] (read-out: PI3K γ IC50), greater than 10000 nM.
On to `CN1CCN(c2cc(-c3cnc4ccc(-c5ccc6oc(N)nc6c5)cn34)ccn2)CC1` [Compound 43], for which the IC50 in assay [1], in assay [3] and in assay [4] (read-out: PI3K γ IC50) was less than 100 nM in each case.
For `Nc1nc2cc(-c3ccc4ncc(-c5cn[nH]c5)nc4c3)ccc2o1`, the concentration for half-maximal inhibition (IC50) in assay [1] was less than 1000 nM; in assay [2] it was less than 1000 nM; in assay [3] it was less than 100 nM; in assay [4] (read-out: PI3K γ IC50), less than 100 nM.
Consider `Nc1nc2cc(-c3ccc4ncc(N5CCOCC5)nc4n3)ccc2o1`, for which the IC50 in assay [1] was greater than 10000 nM; in assay [2], less than 1000 nM; in assay [3] it was less than 100 nM; in assay [4] (read-out: PI3K γ IC50), less than 100 nM.
Take `C[C@H]1CN(C2CN(c3cnc4ccc(-c5ccc6oc(N)nc6c5)nc4n3)C2)CCN1C`: the IC50 in assay [1] was less than 10000 nM; in assay [2], greater than 10000 nM; in assay [3], less than 100 nM; in assay [4] (read-out: PI3K γ IC50), greater than 10000 nM.
As for `CC(C)(N)C(=O)N1CCN(c2ccc3ncc(-c4ccc5oc(N)nc5c4)cc3n2)CC1`, the IC50 is greater than 10000 nM in assay [1], greater than 10000 nM in assay [2], less than 10000 nM in assay [3] and less than 10000 nM in assay [4] (read-out: PI3K γ IC50).
On to `Nc1nc2cc(-c3ccc4ncc(N[C@H]5CC[C@H](O)CC5)nc4c3)ccc2o1`, for which the IC50 was less than 100 nM in assay [1], less than 10000 nM in assay [2], less than 100 nM in assay [3] and less than 100 nM in assay [4] (read-out: PI3K γ IC50).
For `Nc1nc2cc(-c3ccc4ncc(N5CCOCC5)n4c3)ccc2o1` [Compound 53], the IC50 in assay [1] was greater than 10000 nM; in assay [2] it was greater than 10000 nM; in assay [3], less than 10000 nM; in assay [4] (read-out: PI3K γ IC50), greater than 10000 nM.
As for `C[C@@H]1CN(c2cnc3ccc(-c4ccc5oc(N)nc5c4)cc3n2)CCN1`, the IC50 in assay [1] is less than 10000 nM; in assay [2] it was less than 1000 nM; in assay [3], less than 100 nM; in assay [4] (read-out: PI3K γ IC50), less than 10000 nM.
`CN1CCN(c2cc(-c3ccnc4ccc(-c5ccc6oc(N)nc6c5)cc34)ccn2)CC1` [Compound 30]: the IC50 in assay [1], in assay [3] and in assay [4] (read-out: PI3K γ IC50) was less than 100 nM throughout.
For the molecule `Nc1nc2cc(-c3ccc4nccc(NC5CCOCC5)c4c3)ccc2o1` [Compound 32], the IC50 is greater than 10000 nM in assay [1], less than 10000 nM in assay [3] and less than 10000 nM in assay [4] (read-out: PI3K γ IC50).
For `Nc1nc2cccc(-c3ccc4nccc(-c5ccncc5)c4c3)c2s1` [Compound 17], the figures for the IC50 in assay [1], in assay [2] and in assay [4] (read-out: PI3K γ IC50) were less than 1000 nM, less than 1000 nM and less than 100 nM, respectively.
With `Nc1nc2cc(-c3ccc4nccc(-c5cccnc5)c4c3)ccc2o1` [Compound 31], the IC50 in assay [1], in assay [3] and in assay [4] (read-out: PI3K γ IC50) was less than 100 nM in each case.
For the molecule `CN1CCC(Oc2ncnc3ccc(-c4ccc5oc(N)nc5c4)cc23)CC1` [Compound 34], the IC50 was less than 1000 nM in assay [1], less than 100 nM in assay [3] and less than 100 nM in assay [4] (read-out: PI3K γ IC50).
Regarding `Nc1nc2cc(-c3ccc4nccc(CCN5CCOCC5)c4c3)ccc2o1` [Compound 27], the IC50 in assay [1] was less than 10000 nM; in assay [3], less than 1000 nM; in assay [4] (read-out: PI3K γ IC50), less than 100 nM.
The matching figures for `Nc1nc2cc(-c3ccc4ncc(-c5cn[nH]c5)n4c3)ccc2o1` [Compound 38]: less than 100 nM, less than 100 nM and less than 100 nM.
As for `Nc1nc2cc(-c3ccc4ncnc(N5CCC(O)CC5)c4c3)ccc2o1` [Compound 29], the IC50 in assay [1], in assay [3] and in assay [4] (read-out: PI3K γ IC50) was less than 100 nM in each case.
Consider `Nc1nc2cc(-c3ccc4ncc(C#CC5CC5)n4c3)ccc2o1` [Compound 39], for which the IC50 in assay [1], in assay [3] and in assay [4] (read-out: PI3K γ IC50) was less than 100 nM in each case.
With `Nc1nc2cc(-c3ccc4nccc(-c5cn[nH]c5)c4c3)ccc2o1` [Compound 20], the IC50 in assay [1], in assay [2] and in assay [3] was less than 100 nM throughout.
On to `Nc1nc2cc(-c3ccc4nccc(NCCN5CCOCC5)c4c3)ccc2o1` [Compound 33], for which the IC50 was less than 1000 nM in assay [1], less than 100 nM in assay [3] and less than 1000 nM in assay [4] (read-out: PI3K γ IC50).
With `Nc1nc2cc(-c3ccc4nccc(N5CCOCC5)c4c3)ccc2o1` [Compound 28], the IC50 is less than 1000 nM in assay [1], less than 100 nM in assay [3] and less than 100 nM in assay [4] (read-out: PI3K γ IC50).
As to `CC(=O)N1CCC(n2cnc3ccc(-c4ccc5oc(N)nc5c4)cc3c2=O)CC1`, the IC50 was greater than 10000 nM in assay [1], less than 10000 nM in assay [3] and greater than 10000 nM in assay [4] (read-out: PI3K γ IC50).
`Nc1nc2cc(-c3ccc4ncc(N5CCN(C(=O)C6(N)CC6)CC5)nc4c3)ccc2o1`: the IC50 in assay [5] is less than 10000 nM; in assay [2], greater than 10000 nM; in assay [3], less than 1000 nM; in assay [4] (read-out: PI3K δ IC50), less than 10000 nM.
For the molecule `Nc1nc2cc(-c3ccc4ncc(C(=O)N5CCOCC5)n4c3)cc(F)c2o1`, the IC50 is less than 10000 nM in assay [5], less than 1000 nM in assay [2], less than 100 nM in assay [3] and less than 100 nM in assay [4] (read-out: PI3K δ IC50).
`Nc1nc2cc(-c3ccc4ncc(C(=O)N5CC(N6CC[C@H](O)C6)C5)n4c3)ccc2o1`: the 50% inhibitory concentration (IC50) in assay [5] is less than 10000 nM; in assay [2] it was less than 10000 nM; in assay [3], less than 100 nM; in assay [4] (read-out: PI3K δ IC50), less than 1000 nM.
`Nc1nsc2c(-c3ccc4ncc(C(=O)N5CCOCC5)n4c3)cccc12`: the IC50 was greater than 10000 nM in assay [5], greater than 10000 nM in assay [2], less than 10000 nM in assay [3] and greater than 10000 nM in assay [4] (read-out: PI3K δ IC50).
Regarding `CS(=O)(=O)CCN1CCN(C(=O)c2cnc3ccc(-c4ccc5oc(N)nc5c4)cn23)CC1`, the IC50 in assay [5] was less than 10000 nM; in assay [2] it was less than 10000 nM; in assay [3], less than 100 nM; in assay [4] (read-out: PI3K δ IC50), less than 1000 nM.
`Nc1nc2cc(-c3ccc4ncc(C(=O)NCCN5CCCC5)n4c3)ccc2o1`: the IC50 in assay [5] was less than 1000 nM; in assay [2], less than 10000 nM; in assay [3] it was less than 1000 nM; in assay [4] (read-out: PI3K δ IC50), greater than 10000 nM.
Turning to `Nc1nc2cc(-c3ccc4ncc(C(=O)N5CC[C@@H](N6CCOCC6)C5)n4c3)ccc2o1`, the IC50 in assay [5] is less than 10000 nM; in assay [2] it was less than 10000 nM; in assay [3], less than 1000 nM; in assay [4] (read-out: PI3K δ IC50) it was less than 1000 nM.
